In US20220298225A1, “METHODS AND COMPOSITIONS FOR TREATING CANCER WITH COLLAGEN BINDING DRUG CARRIERS” (The University of Chicago, priority 2019, published 2022):

How the values were obtained:
B = experiment: B
Experimental: Table printed on a drawing sheet, FIG. 2A-D
Blood plasma was collected at indicated time points. […] (B) Plasma half-lives of Dox were calculated using two-phase exponential decay: MFI (t)=Ae^−αt+Be^−βt. t½, α, fast clearance half-life; t½, β, slow clearance half-life. […] At the indicated time points, tumors were harvested, and the amount of Dox within the tumors was quantified (mean±SEM. n=5 for 2 h, n=7 for 24 h per group). […] 1 h after injection, tumors were harvested and fluorescence was analyzed by confocal microscopy. Tissues were also stained with DAPI and anti-CD31 antibody. Scale bar=100 μm. Representative images of 3 tumors, each. Two experimental replicates. Statistical analyses were done using ANOVA with Tukey's test. *p<0.05; **p<0.01; N.S.=not significant.

[1] = Toxicity profiles in tumor-free FVB mice; conditions: 20 mg/kg Dox basis
Experimental: Blood samples were collected from each mouse in EDTA-coated tube by submandibular bleeding on day 3 and day 6 after injection for plasma cytokine analysis and hematological analysis. Body weight of each mouse was measured at indicated time points. On day 16, mice were sacrificed and organs were harvested. Spleens were weighed, and the other organs were used for histological analysis. Mice were sacrificed when more than 15% decrease of initial body weight was observed.
Blood samples were analyzed using COULTER Ac⋅T 5diff CP hematology analyzer (Beckman coulter) according to the manufacturer's instructions.
Blood plasma was collected from whole blood sample as described above and stored at −20° C. until use. Cytokine concentrations in plasma were measured using Ready-SET-Go! ELISA kits (eBioscience) and Can Get Signal solution (TOYOBO) according to manufacturer's instructions.
Organs were fixed with 2% paraformaldehyde in PBS overnight. After embedding in paraffin, blocks were cut into 5 μm sections, followed by H&E staining.

MMTV-PyMT breast cancer [2] = experiment: MMTV-PyMT murine breast cancer model, anti-tumor efficacy; format: in vivo, mouse; conditions: single i.v. injection 5 mg/kg Dox basis on day 7
Experimental: The MMTV-PyMT murine breast cancer model was prepared as described previously (9). A total of 5×10^5 MMTV-PyMT cells suspended in 50 μL of PBS were injected subcutaneously into the mammary gland on the right side of each mouse. […] Tumors were measured with a digital caliper at indicated time points, and volumes were calculated as ellipsoids, where V=4/3×3.14×depth/2×width/2×height/2. Mice were sacrificed when tumor volume had reached over 500 mm^3 or when active ulceration was observed. For the therapeutic experiment, FVB mice originated from Charles River origin were used. […] The proportion of mice from different providers was equalized among all groups.

MMTV-PyMT breast cancer [3] = experiment: Tumor-infiltrating lymphocytes by flow cytometry in MMTV-PyMT model; format: in vivo, mouse; conditions: 7 days after treatment, 5 mg/kg
Experimental: MMTV-PyMT model was prepared as described above. […] Mice were sacrificed on day 14. Cell suspensions were obtained from each tumor as described previously (9). Tumors were harvested and digested in Dulbecco's Modified Eagle Medium (DMEM) supplemented with 2% FBS, 2 mg/mL collagenase D and 40 μg/mL DNase I (Roche) for 30 min at 37° C. Single-cell suspensions were obtained by gently disrupting the organs through a 70 μm cell strainer. Red blood cells were lysed with ACK lysing buffer (Quality Biological). Fixable live/dead cell discrimination was performed using Fixable Viability Dye eFluor 455 (eBioscience) according to the manufacturer's instructions. Following a washing step, cells were stained with specific antibodies for 20 min on ice prior to fixation. Following antibodies were used to stain the cells: CD3 (145-2C11, BD Biosciences), CD4 (RM4-5, BD Biosciences), CD8α (53-6.7, BD Biosciences), CD45 (30-F11, BD Biosciences), and NK1.1 (PK136, BD Biosciences). All flow cytometric analyses were done using a Fortessa flow cytometer (BD Biosciences) and analyzed using FlowJo software (Tree Star).

MMTV-PyMT cells = experiment: Cellular uptake of Dox-conjugates (confocal microscopy); format: cell-based, mouse; conditions: after 1 h of incubation, 50 μM equivalent of Dox
Experimental: To evaluate the cellular uptake of Dox-conjugates, MMTV-PyMT cells were seeded in 96 well high content imaging plate (Corning) at 5000 cells/well and incubated overnight. […] After the incubation, cells were washed twice, treated with 75 nM of Lysotracker Deep Red and further incubated 30 min at 37° C. Cells were washed twice and observed by IX83 microscope (Olympus) with ×60 magnification. Images were processed using ImageJ software (NIH). Scale bar; 20 μm.

[4] = mouse models; cited from earlier work

Q: For COc1cccc2c1C(=O)c1c(O)c3c(c(O)c1C2=O)C[C@@](O)(/C(CO)=N/NC(=O)CCCCCN1C(=O)C=CC1=O)C[C@@H]3O[C@H]1C[C@H](N)[C@H](O)[C@H](C)O1 [Aldoxorubicin], which “t½, α” value (B) is on record?
A: The value was 2.4 ± 0.168 min.

Q: What about the “t½, β” value (B) of the same molecule?
A: Its value is 22.6 ± 3.3 h.

Q: Which results are given for COc1cccc2c1C(=O)c1c(O)c3c(c(O)c1C2=O)C[C@@](O)(/C(CO)=N/NC(=O)CCCCCN1C(=O)C=CC1=O)C[C@@H]3O[C@H]1C[C@H](N)[C@H](O)[C@H](C)O1 [aldoxorubicin]?
A: plasma concentration of IFN-γ ([1]; day 3): increased; plasma concentration of IL-5 ([1]; day 3): increased; plasma concentration of IL-6 ([1]; day 3): increased; plasma concentration of TNF-α ([1]; day 3): increased; white blood cell (WBC) counts ([1]; day 3): significant decrease; hematocrit ([1]; day 6): significant decrease; hemoglobin concentration ([1]; day 6): significant decrease; red blood cell (RBC) counts ([1]; day 6): significant decrease; splenomegaly (spleen weight) ([1]; day 16): induced splenomegaly; tumor growth (MMTV-PyMT breast cancer [2]): did not; number of CD4+ T cells within the tumor per unit tumor mass (MMTV-PyMT breast cancer [3]): not; number of CD8+ T cells within the tumor per unit tumor mass (MMTV-PyMT breast cancer [3]): not; number of NK cells within the tumor per unit tumor mass (MMTV-PyMT breast cancer [3]): not

Q: For COc1cccc2c1C(=O)c1c(O)c3c(c(O)c1C2=O)C[C@@](O)(C(=O)CO)C[C@@H]3O[C@H]1C[C@H](N)[C@H](O)[C@H](C)O1 [Dox, Doxorubicin], which “intracellular localization of Dox fluorescence” value (MMTV-PyMT cells) is on record?
A: The value was “detected in cytoplasm, intracellular acidic organelles, and preferentially in the nucleus”.

Q: And the “cumulative dose that irreversibly damages cardiac tissue” value [4]?
A: The value was 15 mg/kg.
